Assay results taken from patent US20220315554A1, “COMPOUNDS COMPRISING A […] LIGAND AND USE THEREOF” (priority 2019, published 2022).
Numbered stars: 1 amine (or outer) side, 2 acyl side, 3 side chain; on linkers, the order of the positions; unused ones are H or OH. Bridge positions count the residues as written; N and C are the ends. Square brackets hold non-standard residues; d marks the D form. Peptide text beside a SMILES is read from it. * marks the point of attachment. ξ: configuration not given here. X3 = NC(=O)[C@H](CCCCNC(=O)CN1CCN(CC(=O)O)CCN(CC(=O)O)CCN(CC(=O)O)CC1)NC(=O)CCC(=O)NCCCOCCOCCOCCCN*; X6 = NC(=O)[C@H](CCCCNC(=O)CCCC[C@@H]1SC[C@@H]2NC(=O)N[C@@H]21)NC(=O)CCC(=O)NCCCOCCOCCOCCCN*; X2 = O=C(O)CN1CCN(CC(=O)O)CCN(CC(=O)NCCCOCCOCCOCCCN*)CCN(CC(=O)O)CC1; mXylylene = c1cc(C[*:1])cc(C[*:2])c1; NMeF = CN[C@@H](Cc1ccccc1)C(=O)O; Suc = O=C(CCC(=O)[*:2])[*:1]; Nle = CCCC[C@H](N)C(=O)O; Hexanoyl = CCCCCC(=O)*; ξD = NC(CC(=O)O)C(=O)O

Experiments:
Recombinant human DPP4 = target: T1, Recombinant human DPP4 (Homo sapiens, UniProt P27487); test: DPP4 protease activity assay; format: biochemical
T1 construct: purchased R&D systems 9168-SE
T1 sequence (P27487 whole entry): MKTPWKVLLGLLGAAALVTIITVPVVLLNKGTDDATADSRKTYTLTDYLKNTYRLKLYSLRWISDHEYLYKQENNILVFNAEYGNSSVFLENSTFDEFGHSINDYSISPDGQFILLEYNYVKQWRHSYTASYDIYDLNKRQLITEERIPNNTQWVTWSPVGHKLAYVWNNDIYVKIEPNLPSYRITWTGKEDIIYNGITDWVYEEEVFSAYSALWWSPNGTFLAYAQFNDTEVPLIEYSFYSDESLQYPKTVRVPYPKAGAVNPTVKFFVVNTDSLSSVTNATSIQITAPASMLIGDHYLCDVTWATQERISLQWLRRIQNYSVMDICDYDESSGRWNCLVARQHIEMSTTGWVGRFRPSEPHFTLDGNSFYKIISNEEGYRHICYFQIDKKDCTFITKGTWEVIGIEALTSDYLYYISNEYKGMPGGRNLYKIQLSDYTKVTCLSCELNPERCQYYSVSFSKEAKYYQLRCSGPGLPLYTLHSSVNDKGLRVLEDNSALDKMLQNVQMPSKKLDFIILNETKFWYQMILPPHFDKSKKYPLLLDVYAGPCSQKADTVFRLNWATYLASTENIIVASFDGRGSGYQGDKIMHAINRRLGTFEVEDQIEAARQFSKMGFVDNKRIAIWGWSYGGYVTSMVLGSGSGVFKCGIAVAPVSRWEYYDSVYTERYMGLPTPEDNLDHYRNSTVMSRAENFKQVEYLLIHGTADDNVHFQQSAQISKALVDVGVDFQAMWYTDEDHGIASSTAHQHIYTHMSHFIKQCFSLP

Human recombinant FAP [1] = target: T2, Human recombinant FAP (Homo sapiens, UniProt Q12884); test: FRET-based FAP protease activity assay; format: biochemical; parameters: purchased R&D systems 3715-SE
T2 sequence (Q12884 1-760): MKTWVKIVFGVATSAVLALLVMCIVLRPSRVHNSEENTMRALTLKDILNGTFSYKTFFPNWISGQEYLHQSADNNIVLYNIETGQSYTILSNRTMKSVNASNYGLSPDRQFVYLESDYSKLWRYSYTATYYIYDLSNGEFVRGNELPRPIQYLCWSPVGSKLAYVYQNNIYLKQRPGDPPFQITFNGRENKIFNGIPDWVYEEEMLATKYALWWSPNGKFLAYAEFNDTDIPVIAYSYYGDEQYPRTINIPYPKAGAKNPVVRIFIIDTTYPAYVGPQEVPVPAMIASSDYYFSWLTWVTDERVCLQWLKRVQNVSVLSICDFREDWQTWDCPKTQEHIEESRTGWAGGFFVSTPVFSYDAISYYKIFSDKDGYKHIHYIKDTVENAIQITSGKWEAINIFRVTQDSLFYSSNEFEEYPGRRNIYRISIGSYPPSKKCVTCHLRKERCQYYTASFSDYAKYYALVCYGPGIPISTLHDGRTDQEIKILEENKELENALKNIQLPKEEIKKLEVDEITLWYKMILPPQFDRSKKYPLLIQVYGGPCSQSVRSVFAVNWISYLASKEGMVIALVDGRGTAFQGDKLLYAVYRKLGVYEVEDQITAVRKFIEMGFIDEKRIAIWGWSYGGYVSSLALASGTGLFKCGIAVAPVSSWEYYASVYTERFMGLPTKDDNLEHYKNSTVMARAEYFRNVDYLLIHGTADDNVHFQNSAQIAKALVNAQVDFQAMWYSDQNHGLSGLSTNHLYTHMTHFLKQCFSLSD

recombinant human PREP = target: T3, recombinant human PREP (Homo sapiens, UniProt P48147); test: PREP protease activity assay; format: biochemical
T3 construct: purchased R&D systems 4308-SE
T3 sequence (P48147 1-710): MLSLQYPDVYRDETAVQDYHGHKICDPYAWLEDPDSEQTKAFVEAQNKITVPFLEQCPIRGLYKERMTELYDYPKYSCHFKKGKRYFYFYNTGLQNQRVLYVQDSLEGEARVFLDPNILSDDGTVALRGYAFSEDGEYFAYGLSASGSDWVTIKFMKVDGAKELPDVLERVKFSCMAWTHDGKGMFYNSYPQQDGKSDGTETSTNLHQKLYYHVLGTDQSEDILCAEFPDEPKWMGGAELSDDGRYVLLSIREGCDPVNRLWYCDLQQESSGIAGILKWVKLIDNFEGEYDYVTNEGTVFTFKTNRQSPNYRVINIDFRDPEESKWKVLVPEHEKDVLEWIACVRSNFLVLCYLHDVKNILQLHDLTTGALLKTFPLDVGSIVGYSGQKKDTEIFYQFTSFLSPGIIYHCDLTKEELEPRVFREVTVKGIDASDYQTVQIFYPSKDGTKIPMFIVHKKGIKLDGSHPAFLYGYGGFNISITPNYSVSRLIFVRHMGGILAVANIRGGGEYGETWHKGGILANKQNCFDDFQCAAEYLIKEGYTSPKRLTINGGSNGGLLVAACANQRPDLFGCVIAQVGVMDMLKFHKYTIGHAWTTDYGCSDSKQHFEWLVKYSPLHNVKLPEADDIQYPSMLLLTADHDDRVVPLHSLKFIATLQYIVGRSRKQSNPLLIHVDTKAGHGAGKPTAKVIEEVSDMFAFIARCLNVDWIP

[2] = target: T4, FAP-expressing human WI-38 fibroblasts (Homo sapiens, UniProt Q12884); test: Competitive FACS binding assay
T4 construct: FAP-expressing human WI-38 fibroblasts (ECACC) were cultured in EMEM; host or cells: WI-38 human fibroblasts
T4 sequence (Q12884 1-760): T2 sequence (Q12884 1-760)
Description: Cells were analyzed in an Attune NxT flow cytometer. […]

[3] = Plasma stability assay, mouse plasma; format: in vitro ADME; details: 4 h incubation, 37° C., read-out: % intact compound remaining after incubation, Mouse plasma
Human recombinant FAP [4] = target: T2, Human recombinant FAP; test: Surface plasmon resonance (Biacore) assay; format: binding
[5] = pIC50 Category (Activity), recombinant human FAP, FRET substrate, 37° C.
[6] = pIC50 Category (FACS), competition with 3 nM Cy5-labeled compound, WI-38 fibroblasts, 4° C., 1 hour

Compound	IC50 (Recombinant human DPP4)	IC50 (Human recombinant FAP [1]; [5])	IC50 (recombinant human PREP)	IC50 [2, 6]	remaining at 4 h, 9.8 µM [3]	Kd (Human recombinant FAP [4])	IC50 (Human recombinant FAP [1]; pIC50 (highest activity category), FAP activity assay)	IC50 ([2]; pIC50 (highest activity category), FACS binding)
CSCC[C@H](N)C(=O)N[C@H]1CSCc2cccc(c2)CSC[C@@H](C(=O)N[C@@H](CC(=O)O)C(=O)N[C@@H](Cc2c[nH]cn2)C(=O)N[C@@H](Cc2ccccc2)C(=O)N[C@@H](CCCNC(=N)N)C(=O)N[C@@H](CC(=O)O)C(=O)NCCCOCCOCCOCCCNC(=O)CCC(=O)N[C@@H](CCCCNC(=O)CCCC[C@@H]2SC[C@@H]3NC(=O)N[C@@H]32)C(N)=O)NC(=O)[C@H](Cc2ccccc2)NC(=O)[C@H](CCC(=O)O)NC(=O)[C@H]([C@@H](C)O)NC(=O)[C@@H]2CCCN2C(=O)[C@@H]2CCCN2C1=O [3BP-2881, H-Met-[Cys(3MeBn)-Pro-Pro-Thr-Glu-Phe-Cys]-Asp-His-Phe-Arg-Asp-Ttds-Lys(Bio)-NH2] (H-MCPPTEFCDHFRD-X6; linker 2-8 via mXylylene)	> 1000 nM	< 10 nM	> 1000 nM	< 10 nM				
CCCCCC(=O)N[C@H]1CSCc2cccc(c2)CSC[C@@H](C(=O)N[C@@H](CC(=O)O)C(=O)N[C@@H](Cc2c[nH]cn2)C(=O)N[C@@H](Cc2ccccc2)C(=O)N[C@@H](CCCNC(=N)N)C(=O)N[C@@H](CC(=O)O)C(=O)NCCCOCCOCCOCCCNC(=O)CCC(=O)N[C@@H](CCCCNC(=O)CN2CCN(CC(=O)O)CCN(CC(=O)O)CCN(CC(=O)O)CC2)C(N)=O)NC(=O)[C@H](Cc2ccccc2)NC(=O)[C@H](CCC(=O)O)NC(=O)[C@H]([C@@H](C)O)NC(=O)[C@@H]2CCCN2C(=O)[C@@H]2CCCN2C1=O [3BP-3105, Hex-[Cys(3MeBn)-Pro-Pro-Thr-Glu-Phe-Cys]-Asp-His-Phe-Arg-Asp-Ttds-Lys(DOTA)-NH2] (Hexanoyl-CPPTEFCDHFRD-X3; linker 1-7 via mXylylene)	> 1000 nM	< 10 nM	> 1000 nM	< 10 nM	55%	< 10 nM		
CSCC[C@H](NC(=O)CCC(=O)NCCCOCCOCCOCCOCCCNC(=O)CN1CCN(CC(=O)O)CCN(CC(=O)O)CCN(CC(=O)O)CC1)C(=O)N[C@H]1CSCc2cccc(c2)CSC[C@@H](C(=O)N[C@@H](CC(=O)O)C(=O)N[C@@H](Cc2c[nH]cn2)C(=O)N[C@@H](Cc2ccccc2)C(=O)N[C@@H](CCCNC(=N)N)C(=O)N[C@@H](CC(=O)O)C(N)=O)NC(=O)[C@H](Cc2ccccc2)NC(=O)[C@H](CCC(=O)O)NC(=O)[C@H]2NC(=O)[C@@H]3C(CCN3C(=O)[C@@H]3CCCN3C1=O)[C@H]2O [3BP-3168, DOTA-Ttds-Nle-[Cys(3MeBn)-Pro-Pro-Thr-Glu-Phe-Cys]-Asp-His-Phe-Arg-Asp-NH2]	> 1000 nM	< 10 nM	> 1000 nM	< 10 nM	100%	< 10 nM	< 10 nM	< 10 nM
CCCCCC(=O)N[C@H]1CSCc2cccc(c2)CSC[C@@H](C(=O)N[C@@H](CC(=O)O)C(=O)N[C@@H](Cc2c[nH]cn2)C(=O)N(C)[C@@H](Cc2ccccc2)C(=O)N[C@@H](CCCNC(=N)N)C(=O)NCCCOCCOCCOCCCNC(=O)CCC(=O)N[C@@H](CCCCNC(=O)CN2CCN(CC(=O)O)CCN(CC(=O)O)CCN(CC(=O)O)CC2)C(N)=O)NC(=O)[C@H](Cc2ccccc2)NC(=O)[C@H](CCC(=O)O)NC(=O)[C@H]([C@@H](C)O)NC(=O)[C@@H]2CCCN2C(=O)[C@@H]2CCCN2C1=O [3BP-3275, Hex-[Cys(3MeBn)-Pro-Pro-Thr-Glu-Phe-Cys]-Asp-His-Nmf-Arg-Ttds-Lys(DOTA)-NH2] (Hexanoyl-CPPTEFCDH[NMeF]R-X3; linker 1-7 via mXylylene)	> 1000 nM	< 10 nM	> 1000 nM	< 10 nM	94%	< 10 nM		
CCCCCC(=O)N[C@H]1CSCc2cccc(c2)CSC[C@@H](C(N)=O)NC(=O)[C@H](Cc2ccccc2)NC(=O)[C@H](CCC(=O)O)NC(=O)[C@H]([C@@H](C)O)NC(=O)[C@@H]2CCCN2C(=O)[C@@H]2CCCN2C1=O [3BP-3287, Hex-[Cys(3MeBn)-Pro-Pro-Thr-Glu-Phe-Cys]-NH2] (Hexanoyl-CPPTEFC-NH2; linker 1-7 via mXylylene)	> 1000 nM	10 to 79.4 nM	> 1000 nM	100 to 794 nM				
CCCC[C@H](NC(=O)CCC(=O)NCCCOCCOCCOCCCNC(=O)CN1CCN(CC(=O)O)CCN(CC(=O)O)CCN(CC(=O)O)CC1)C(=O)N[C@H]1CSCc2cccc(c2)CSC[C@@H](C(N)=O)NC(=O)[C@H](Cc2ccccc2)NC(=O)[C@H](CCC(=O)O)NC(=O)[C@H]([C@@H](C)O)NC(=O)[C@@H]2CCCN2C(=O)[C@@H]2CCCN2C1=O [3BP-3319, DOTA-Ttds-Nle-[Cys(3MeBn)-Pro-Pro-Thr-Glu-Phe-Cys]-NH2] ({X2-Suc}-[Nle]CPPTEFC-NH2; linker 2-8 via mXylylene)	> 1000 nM	10 to 79.4 nM	631 nM	10 to 79.4 nM	100%	10 to 79.4 nM		
CCCC[C@H](NC(=O)CCC(=O)NCCCOCCOCCOCCCNC(=O)CN1CCN(CC(=O)O)CCN(CC(=O)O)CCN(CC(=O)O)CC1)C(=O)N[C@H]1CSCc2cccc(c2)CSC[C@@H](C(=O)NC(CC(=O)O)C(N)=O)NC(=O)[C@H](Cc2ccccc2)NC(=O)[C@H](CCC(=O)O)NC(=O)[C@H]([C@@H](C)O)NC(=O)[C@@H]2CCCN2C(=O)[C@@H]2CCCN2C1=O (stereo partly drawn) [3BP-3320, DOTA-Ttds-Nle-[Cys(3MeBn)-Pro-Pro-Thr-Glu-Phe-Cys]-Asp-NH2] ({X2-Suc}-[Nle]CPPTEFC[ξD]-NH2; linker 2-8 via mXylylene)	> 1000 nM	< 10 nM	> 1000 nM	10 to 79.4 nM	75%	< 10 nM		
CCCCCC(=O)N[C@H]1CSCc2cccc(c2)CSC[C@@H](C(N)=O)NC(=O)[C@H](Cc2ccccc2)NC(=O)[C@H](CCC(N)=O)NC(=O)[C@H]([C@@H](C)O)NC(=O)[C@@H]2CCCN2C(=O)[C@@H]2CCCN2C1=O [3BP-3349, Hex-[Cys(3MeBn)-Pro-Pro-Thr-Gln-Phe-Cys]-NH2]	> 1000 nM	< 10 nM	> 1000 nM	10 to 79.4 nM		< 10 nM		
CCCCCC(=O)N[C@H]1CSCc2cccc(c2)CSC[C@@H](C(=O)N[C@@H](CC(=O)O)C(N)=O)NC(=O)[C@H](Cc2ccccc2)NC(=O)[C@H](CCC(N)=O)NC(=O)[C@H]([C@@H](C)O)NC(=O)[C@@H]2CCCN2C(=O)[C@@H]2CCCN2C1=O [3BP-3476, Hex-[Cys(3MeBn)-Pro-Pro-Thr-Gln-Phe-Cys]-Asp-NH2] (Hexanoyl-CPPTQFCD-NH2; linker 1-7 via mXylylene)	> 1000 nM	< 10 nM	> 1000 nM	< 10 nM		< 10 nM		
